Reference: patent publication US20170275298A1, “INHIBITORS OF THE RENAL OUTER MEDULLARY POTASSIUM CHANNEL” (Merck Sharp & Dohme Corp., priority 2014, published 2017)

Molecular target: T1, hROMK (hKir1.1) (Homo sapiens, UniProt P48048)
T1 construct: expressed in transfected cells
T1 sequence (P48048 1-391): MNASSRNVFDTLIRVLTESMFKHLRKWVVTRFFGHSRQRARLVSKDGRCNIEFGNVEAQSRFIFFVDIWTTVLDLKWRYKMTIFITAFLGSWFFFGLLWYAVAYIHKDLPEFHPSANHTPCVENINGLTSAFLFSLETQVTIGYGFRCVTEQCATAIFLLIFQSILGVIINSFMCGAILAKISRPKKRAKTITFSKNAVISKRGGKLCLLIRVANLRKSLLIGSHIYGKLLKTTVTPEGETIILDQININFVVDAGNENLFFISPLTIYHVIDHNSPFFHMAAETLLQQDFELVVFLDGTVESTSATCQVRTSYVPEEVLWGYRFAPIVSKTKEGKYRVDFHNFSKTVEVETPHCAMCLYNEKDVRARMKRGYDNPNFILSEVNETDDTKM
Test: Thallium Flux Assay (ROMK channel functional thallium flux assay)
Type: cell-based
Conditions: HEK293 cells stably expressing hROMK (hKir1.1); FluxOR thallium flux, FLIPR-Tetra, 30 min compound incubation; read-out: ROMK TI IC50
Description: The following Thallium Flux Assay was performed on each of the final product compounds in the Examples.
HEK293 cells stably expressing hROMK (hKir1.1) were grown at 37° C. in a 10% CO2 humidified incubator in complete growth media: Dulbecco's Modified Eagle Medium supplemented with non-essential amino acids, Penicillin/Streptomycin/Glutamine, G418 and FBS. At >80% confluency, the media was aspirated from the flask and rinsed with 10 mL calcium/magnesium-free PBS. […] To dislodge the cell, the side of the flask was gently banged with one's hand. The cells completely titrated and then the cells were transferred to 25 mL complete media, centrifuged at 1,500 rpm for 6 min followed by resuspension in complete growth media and determine cell concentration. […] Under ideal growth conditions and appropriate tissue culture practices, this cell line is stable for 40-45 passages.
• FluxOR™ Reagent (Component A) • FluxOR™ Assay Buffer (Component B)—10× Concentrate • PowerLoad™ Concentrate (Component C)—100× Concentrate • Probenecid (Component D)—Lyophilized sample is kept at −20° C. Water soluble, 100× after solubilization in 1 mL water. […] Store at 4° C. • Thallium sulfate (Tl2SO4) Concentrate (Component G)—50 mM in water. Store at 4° C. • DMSO (dimethyl sulfoxide, Component H)—1 mL (100%)
Can be stored at room temperature • Stimulant Buffer (prepared at 5× final concentration in 1×FluxOR™ Chloride-Free Buffer): 7.5 mM thallium sulfate and 0.75 mM potassium sulfate (to give a final assay concentration of 3 mM Thallium/0.3 mM potassium). Store at 4° C. when not in use. If kept sterile, this solution is good for months.
The ROMK channel functional thallium flux assay was performed in 384 wells, using the FLIPR-Tetra instrument. HEK-hKir1.1 cells were seeded in Poly-D-Lysine microplates and kept in a 37° C.-10% CO2 incubator overnight. On the day of the experiment, the growth media was replaced with the FluxOR™ reagent loading buffer and incubated, protected from light, at ambient temperature (23-25° C.) for 90 min. The loading buffer was replaced with assay buffer±test compound followed by 30 min incubation at ambient temperature, where the thallium/potassium stimulant was added to the microplate.
1. Seed HEK-hKir1.1 cells (50 μl at 20,000 cells/well) in 384-well PDL coated Microplates 2. Allow cells to adhere overnight in humidified 37° C./10% CO2 incubator 3. Completely remove cell growth media from microplate and replace with 25 μl loading buffer 4. Incubate Microplate at room temperature, protected form light, for 90 min 5. Remove loading buffer and replace with 25 μl 1× Assay Buffer±test compound. 6. Incubate microplate at room temperature, protected from light, for 30 min 7. […] Excitation=400 nm, Emission=460 & 580 nm. Collect data for ˜10 min.
The fluorescence intensity of wells containing 3 μM of a standard control ROMK inhibitor of the present invention was used to define the ROMK-sensitive component of thallium flux. Fluorescence in the presence of test compounds was normalized to control values to provide % fluorescence change.

Cc1nsc(N2CCC3(CCN(C[C@H](O)c4ccc5c(c4C)COC5=O)CC3)C2)n1 [Example 1, 5-{(1R)-1-hydroxy-2-[2-(3-methyl-1,2,4-thiadiazol-5-yl)-2,8-diazaspiro[4.5]dec-8-yl]ethyl}-4-methyl-2-benzofuran-1(3H)-one]
IC50: 251 nM

Cc1nccnc1N1CCC2(CCN(C[C@H](O)c3ccc4c(c3C)COC4=O)CC2)CC1 [Example 128, (R)-5-(1-hydroxy-2-(9-(3-methylpyrazin-2-yl)-3,9-diazaspiro[5.5]undecan-3-yl)ethyl)-4-methylisobenzofuran-1(3H)-one]
IC50: 581 nM

COc1cc(N2CC3(CCN(C[C@H](O)c4ccc5c(c4C)COC5=O)CC3)CC2=O)ccn1 [Example 84, (R)-8-(2-hydroxy-2-(4-methyl-1-oxo-1,3-dihydroisobenzofuran-5-yl)ethyl)-2-(2-methoxypyridin-4-yl)-2,8-diazaspiro[4.5]decan-3-one]
IC50: 149 nM

Cc1c([C@@H](O)[C@@H](C)N2CCC3(CCN(c4ccc(=O)n(C)n4)C3=O)CC2)ccc2c1COC2=O [Example 108, 8-((1R,2R)-1-hydroxy-1-(4-methyl-1-oxo-1,3-dihydroisobenzofuran-5-yl)propan-2-yl)-2-(1-methyl-6-oxo-1,6-dihydropyridazin-3-yl)-2,8-diazaspiro[4.5]decan-1-one]
IC50: 56 nM

[2H]C([2H])([2H])Oc1nccc(N2CCC3(CCN(C[C@H](O)c4ccc5c(c4C)COC5=O)CC3)C2=O)n1 [Example 39, (R)-8-(2-hydroxy-2-(4-methyl-1-oxo-1,3-dihydroisobenzofuran-5-yl)ethyl)-2-(2-methoxypyrimidin-4-yl)-2,8-diazaspiro[4.5]decan-1-one (methoxy-d3)]
IC50: 38.8 nM

Cc1c([C@@H](O)CN2CCC3(CC2)OCCN(c2ccncc2)C3=O)ccc2c1COC2=O [Example 26, (R)-9-(2-hydroxy-2-(4-methyl-1-oxo-1,3-dihydroisobenzofuran-5-yl)ethyl)-4-(pyridin-4-yl)-1-oxa-4,9-diazaspiro[5.5]undecan-5-one]
IC50: 238 nM

Cc1c([C@@H](O)CN2CCC3(CC2)CCN(c2nc(CO)ns2)C3=O)ccc2c1COC2=O [Example 83, (R)-8-(2-hydroxy-2-(4-methyl-1-oxo-1,3-dihydroisobenzofuran-5-yl)ethyl)-2-(3-(hydroxymethyl)-1,2,4-thiadiazol-5-yl)-2,8-diazaspiro[4.5]decan-1-one]
IC50: 832 nM

Cc1c([C@@H](O)CN2CCC3(CC2)CCN(c2cc(F)ncn2)CC3)ccc2c1COC2=O [Example 117, (R)-5-(2-(9-(6-fluoropyrimidin-4-yl)-3,9-diazaspiro[5.5]undecan-3-yl)-1-hydroxyethyl)-4-methylisobenzofuran-1(3H)-one]
IC50: 403 nM

Cc1cc(-n2cnnn2)ccc1[C@@H](O)CN1CCC2(CC1)CN(c1ccc(=O)n(C)n1)CCO2 [Example 19, (R)-6-(9-(2-hydroxy-2-(2-methyl-4-(1H-tetrazol-1-yl)phenyl)ethyl)-1-oxa-4,9-diazaspiro[5.5]undecan-4-yl)-2-methylpyridazin-3(2H)-one]
IC50: 540 nM

Cc1c([C@@H](O)CN2CCC3(CC2)CCN(c2nccnc2Cl)CC3)ccc2c1COC2=O [Example 133, (R)-5-(2-(9-(3-chloropyrazin-2-yl)-3,9-diazaspiro[5.5]undecan-3-yl)-1-hydroxyethyl)-4-methylisobenzofuran-1(3H)-one]
IC50: 274 nM

Cc1c([C@@H](O)CN2CCC3(CC2)CCN(c2ccc(C(F)(F)F)cn2)CC3)ccc2c1COC2=O [Example 115, (R)-5-(1-hydroxy-2-(9-(5-(trifluoromethyl)pyridin-2-yl)-3,9-diazaspiro[5.5]undecan-3-yl)ethyl)-4-methylisobenzofuran-1(3H)-one]
IC50: 225 nM

Cc1nsc(N2CCOC3(CCN(C[C@H](O)c4ccc5c(c4C)COC5=O)CC3)C2=O)n1 [Example 28, (R)-9-(2-hydroxy-2-(4-methyl-1-oxo-1,3-dihydroisobenzofuran-5-yl)ethyl)-4-(3-methyl-1,2,4-thiadiazol-5-yl)-1-oxa-4,9-diazaspiro[5.5]undecan-5-one]
IC50: 123 nM

Cc1c(CCN2CCC3(CC2)CCN(c2ccc(=O)n(C)n2)C3=O)ccc2c1COC2=O [Example 20, 8-(2-(4-methyl-1-oxo-1,3-dihydroisobenzofuran-5-yl)ethyl)-2-(1-methyl-6-oxo-1,6-dihydropyridazin-3-yl)-2,8-diazaspiro[4.5]decan-1-one]
IC50: 51.2 nM

Cc1c([C@@H](O)CN2CCC3(CC2)CCN(c2ccncc2F)C3=O)ccc2c1COC2=O [Example 73, (R)-2-(3-fluoropyridin-4-yl)-8-(2-hydroxy-2-(4-methyl-1-oxo-1,3-dihydroisobenzofuran-5-yl)ethyl)-2,8-diazaspiro[4.5]decan-1-one]
IC50: 417 nM

O=C1N(c2ccns2)CCC12CCN(C[C@@H](O)c1ccc(-n3cnnn3)nc1)CC2 [Example 101, (S)-8-(2-(6-(1H-tetrazol-1-yl)pyridin-3-yl)-2-hydroxyethyl)-2-(isothiazol-5-yl)-2,8-diazaspiro[4.5]decan-1-one]
IC50: 203 nM

Cc1c([C@@H](O)CN2CCC3(CC2)CCN(c2ccnc(Cl)n2)C3=O)ccc2c1COC2=O [Example 92, (R)-2-(2-chloropyrimidin-4-yl)-8-(2-hydroxy-2-(4-methyl-1-oxo-1,3-dihydroisobenzofuran-5-yl)ethyl)-2,8-diazaspiro[4.5]decan-1-one]
IC50: 110 nM

COc1nccc(N2CC3(CCN(C[C@H](O)c4ccc5c(c4C)COC5=O)CC3)CC2=O)n1 [Example 31, (R)-8-(2-hydroxy-2-(4-methyl-1-oxo-1,3-dihydroisobenzofuran-5-yl)ethyl)-2-(2-methoxypyrimidin-4-yl)-2,8-diazaspiro[4.5]decan-3-one]
IC50: 153 nM

Cc1c(C(O)C(C)N2CCC3(CCN(c4ccc(=O)n(C)n4)C3=O)CC2)ccc2c1COC2=O [Example 109, 8-41S,2S)-1-hydroxy-1-(4-methyl-1-oxo-1,3-dihydroisobenzofuran-5-yl)propan-2-yl)-2-(1-methyl-6-oxo-1,6-dihydropyridazin-3-yl)-2,8-diazaspiro[4.5]decan-1-one]
IC50: 20 nM

Cc1c([C@@H](O)CN2CCC3(CC2)CCN(c2ccnc(N)n2)C3=O)ccc2c1COC2=O [Example 46, (R)-2-(2-aminopyrimidin-4-yl)-8-(2-hydroxy-2-(4-methyl-1-oxo-1,3-dihydroisobenzofuran-5-yl)ethyl)-2,8-diazaspiro[4.5]decan-1-one]
IC50: 485 nM

Cc1c([C@@H](O)CN2CCC3(CC2)CCN(c2sncc2Br)C3=O)ccc2c1COC2=O [Example 103, (R)-2-(4-bromoisothiazol-5-yl)-8-(2-hydroxy-2-(4-methyl-1-oxo-1,3-dihydroisobenzofuran-5-yl)ethyl)-2,8-diazaspiro[4.5]decan-1-one]
IC50: 61.4 nM

COc1ncc(N2CCC3(CCN(C[C@H](O)c4ccc5c(c4C)COC5=O)CC3)C2)cn1 [Example 15, (R)-5-(1-hydroxy-2-(2-(2-methoxypyrimidin-5-yl)-2,8-diazaspiro[4.5]decan-8-yl)ethyl)-4-methylisobenzofuran-1(3H)-one]
IC50: 284 nM

Cc1cc(N2CCCC3(CCN(C[C@H](O)c4ccc5c(c4C)COC5=O)CC3)C2=O)sn1 [Example 81, (R)-9-(2-hydroxy-2-(4-methyl-1-oxo-1,3-dihydroisobenzofuran-5-yl)ethyl)-2-(3-methylisothiazol-5-yl)-2,9-diazaspiro[5.5]undecan-1-one]
IC50: 175 nM
